# In patent US6548715B1, “Structural analogues of vitamin D” (Laboratoire Theramex S.A., priority 1993, dated 2003):
# Experiments:
# [1] = target: T1, human DBP (vitamin D binding protein) (Homo sapiens, UniProt P02774); assay: Relative affinity for purified human vitamin D-binding protein (hDBP); details: % of the activity of 1α,25-(OH)2D3 at 50% of its activity (B50)
# T1 sequence (P02774 17-474): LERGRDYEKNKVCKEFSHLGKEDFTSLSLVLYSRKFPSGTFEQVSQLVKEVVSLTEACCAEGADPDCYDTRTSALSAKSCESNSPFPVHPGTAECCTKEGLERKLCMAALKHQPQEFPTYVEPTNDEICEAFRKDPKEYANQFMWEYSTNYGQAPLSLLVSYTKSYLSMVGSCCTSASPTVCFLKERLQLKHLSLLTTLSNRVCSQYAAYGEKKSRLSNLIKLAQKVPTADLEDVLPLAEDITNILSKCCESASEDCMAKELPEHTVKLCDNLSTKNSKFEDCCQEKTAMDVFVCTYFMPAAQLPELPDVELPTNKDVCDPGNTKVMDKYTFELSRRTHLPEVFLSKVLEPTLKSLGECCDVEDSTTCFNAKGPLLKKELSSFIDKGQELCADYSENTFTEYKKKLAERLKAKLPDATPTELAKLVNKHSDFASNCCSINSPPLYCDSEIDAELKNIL
# HL-60 cells = assay: HL-60 cell differentiation (NBT reduction); assay type: cell-based; details: % of the activity of 1α,25-(OH)2D3 at 50% of its activity (B50); human leukemia cells
# Method: (§1) HL-60 cells were seeded at 1.2×10^5 cells/ml and 1α,25-(OH)2D3 or its anologs were added in ethanol (final concentration <0.2%) in RPMI 1640 medium supplemented with 10% heat-inactivated fetal calf serum (FCS) for 4 d at 37° C. Cells were then assayed for maturation by NBT reduction assay as described (22) using a hemacytometer, or for proliferation by cell counting and [^3H] thymidine incorporation. MG 63 cells, seeded at 5×10^3 cells/ml in 96 well flat bottomed culture plates (Falcon, Becton Dickinson, N.J.) in a volume of 0.2 ml of DMEM and 2% FCS, were incubated with 1α,25-(OH)2D3 or its analogues for 72 h. Osteocalcin was then measured in the culture medium using a homologous human osteocalcin RIA (39). Breast carcinoma cells (MCF-7 or GR) were grown in DMEM/nut.mix F-12 (HAM) medium supplemented with 10% FCS. Cells (5000/Well) were incubated during 24 h in 96 well tissue culture plates (Falcon 3072) followed by a 72 h incubation with/without 1α,25-(OH)2D3 or analogues. The cells were then incubated with [^3H]thymidine (1 μCi/well) for 4 h and harvested thereafter in NaOH (0.1 M) and the radioactivity counted. The protein content of the cells was measured by the Pierce BCA protein assay (Rockford, Ill.).
# MCF-7 cells = assay: MCF-7 breast cancer cell proliferation ([3H]thymidine incorporation); assay type: cell-based; details: % of the activity of 1α,25-(OH)2D3 at 50% of its activity (B50); human breast cancer cells
# Method: as §1
# [2] = system: human normal keratinocytes; assay: Human keratinocyte proliferation ([3H]thymidine incorporation); assay type: cell-based; details: % of the activity of 1α,25-(OH)2D3 at 50% of its activity (B50)
# Method: to evaluate the effects on cell proliferation of non-malignant cells and especially to evaluate their potential for use for dermatological disorders, the new compounds were tested in cultures of human normal keratinocytes.
# Human skin keratinocytes were isolated and cultured using a modification of the method of Kitano and Okada (38).
# Briefly, the skin from biopsies of patients with breast tumors, was cutted into pieces measuring 3-5 mm and soaked overnight at 4° C. in a solution of dispase (20 Boehringer units/ml). The epidermis was peeled from the dermis, washed with calcium- and magnesium-free phosphate buffered saline and incubated and shaked in a 0.25% trypsin solution for 10 min at room temperature. The reaction was then stopped by addition of PBS containing 10% FCS. The cells were collected after centrifugation at 4° C. for 10 min at 800 rpm. After an additional washing with PBS, the pellet was suspended in culture medium into 25 cm^2 primaria flasks from Becton Dickinson. The keratinocytes were cultivated at 37° C. in an atmosphere of 5% CO2 in air. A few hours later, the medium was replaced by new one. The medium [Keratinocyte Medium from Gibco containing Epidermal Growth Factor (5 ng/ml), Bovine Pituitary Extract (35-50 μg/ml) and antibiotics] was renewed every other day until confluency.
# Keratinocytes were cultured in 96-well plate and, after 24 hours, were treated with various concentrations of vitamin D analogues, followed by pulse labelling with 1 μCi of [^3H]thymidine for 3 hours. Cultures were washed 3 times with PBS and twice with 10% (v/v) ice cold trichloroacetic acid. Cells were solubilized with 1 M NaOH and radioactivity was counted in a scintillation counter.
# [3] = system: vitamin D-deficient chicks; assay: Calcemic effect in vitamin D-deficient chicks (serum calcium); assay type: in vivo, chick; details: % of the activity of 1α,25-(OH)2D3 at 50% of its activity (B50); vitamin D-deficient chicks injected 10 consecutive days
# Method: The antirachitic activity of the analogues was tested in 3 weeks old vitamin D-deficient chicks injected for 10 consecutive days with 1α,25-(OH)2D3 or its analogues (22,23). Serum calcium (by atomic absorptiometry) and osteocalcin (by specific RIA), duodenal calbindin D-28K (by RIA) and bone calcium content were measured. The hypercalcemic effect of the most interesting anologues was also tested in vitamin D-replete normal NMRI mice by daily sc injection of 1α,25-(OH)2D3, its analogues or the solvent for 7 consecutive days, using serum, bone and urinary calcium excretion and serum osteocalcin (by specific mouse RIA) as parameters (40).
# vitamin D receptor = target: T2, vitamin D receptor (Sus scrofa, UniProt A3RGC1); details: % of the activity of 1α,25-(OH)2D3 at 50% of its activity (B50); 1α,25-(OH)2D3 assigned 100%
# T2 sequence (A3RGC1 1-427): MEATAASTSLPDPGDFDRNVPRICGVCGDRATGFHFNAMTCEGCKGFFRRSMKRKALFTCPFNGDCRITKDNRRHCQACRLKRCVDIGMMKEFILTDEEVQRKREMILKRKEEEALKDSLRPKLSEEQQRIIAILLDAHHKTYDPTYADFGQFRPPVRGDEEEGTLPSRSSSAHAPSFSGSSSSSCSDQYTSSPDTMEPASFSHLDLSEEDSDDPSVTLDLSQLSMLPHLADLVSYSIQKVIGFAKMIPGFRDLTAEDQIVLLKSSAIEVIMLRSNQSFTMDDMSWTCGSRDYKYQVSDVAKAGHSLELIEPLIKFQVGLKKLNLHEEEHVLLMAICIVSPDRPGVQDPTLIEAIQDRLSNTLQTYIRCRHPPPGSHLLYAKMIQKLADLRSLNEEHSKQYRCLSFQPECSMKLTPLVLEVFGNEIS
# MG-63 cells = assay: MG-63 osteosarcoma cells, osteocalcin secretion; assay type: cell-based; details: % of the activity of 1α,25-(OH)2D3 at 50% of its activity (B50); human osteosarcoma cells
# Method: as §1
Affinity for human DBP [1] [%],Ca serum chick [3] [%],Affinity for pig receptor (vitamin D receptor) [%],SMILES,Cell differentation/cell proliferation HL-60 (HL-60 cells) [%],Cell differentation/cell proliferation MCF-7 (MCF-7 cells) [%],Cell differentation/cell proliferation keratinocytes [2] [%],Cell differentation/cell proliferation MG-63 (MG-63 cells) [%]
0,0.1,9,CCC(O)(C=CC=CC(C)C1CCC2C(=CC=C3CC(O)CC(O)C3)CCCC21C)CC (stereo not drawn) [Compound 50],40,100,60,
0,<0.1,4,C=C1C(=CC=CCC2(C)CCC(OCCC(O)(CC)CC)C2(C)C)CC(O)CC1O (stereo not drawn) [Compound 18],10,40,35,
3,<0.1,45,CC(CCCC(C)(C)O)C(C)C1(C)CCCC(=CC=C2CC(O)CC(O)C2)C1 (stereo not drawn) [Compound 8],>1000,3000,,300
0,0.3,30,CCC(O)(CC)CCCCC(C)C1CCC2C(=CC=C3CC(O)CC(O)C3)CCCC21C (stereo not drawn) [Compound 55],65,,,3
5,<0.1,45,C=C1C(=CC=CCC2(C)CCC(CCCC(O)(CC)CC)C2(C)C)CC(O)CC1O (stereo not drawn) [Compound 12],250,80,100,135
8,,28,C=C1C(=CC=CCC2(C)CCC(CCCCC(O)(CC)CC)C2(C)C)CC(O)CC1O (stereo not drawn) [Compound 20],75,,,30
5,<1,60,C=C1/C(=C\C=C2/CCC[C@](C)([C@H](C)[C@H](C)CC[C@H](O)C(C)C)C2)C[C@@H](O)C[C@@H]1O [Compound 4],500,2000,2000,100
20,5,60,C=C1/C(=C\C=C2/CCC[C@](C)([C@H](C)[C@H](C)CCCC(C)(C)O)C2)C[C@@H](O)C[C@@H]1O [Compound 7],1000,6000,,700
0.3,1,40,CCC(O)(C#CCC(C)C1CCC2C(=CC=C3CC(O)CC(O)C3)CCCC21C)CC (stereo not drawn) [Compound 48],2200,1500,350,800
70,,,C=C1C(=CC=CC2CCCC(C(C)CCCC(C)(C)O)C2(C)C)CC(O)CC1O (stereo not drawn) [Compound 56],100,,,
10,,100,C=C1C(=CC=C2CCCC3C2CCC3C(C)CCCC(C)(C)O)CC(O)CC1O (stereo not drawn) [Compound 3],720,,,75
10,9,80,C=C1/C(=C\C=C2/CCC[C@](C)([C@H](C)[C@H](C)CC[C@@H](O)C(C)C)C2)C[C@@H](O)C[C@@H]1O [Compound 5],4000,6000,5000,1000
2,2,80,C=C1/C(=C\C=C\[C@@H]2CC[C@](C)(CCCCC(O)(CC)CC)C2(C)C)C[C@@H](O)C[C@@H]1O [Compound 38],100,,,
0,0.2,15,C=C1C(=CC=CCC2(C)CCC(CCCC(O)(CC)CC)C2(C)C)CC(O)CC1O (stereo not drawn) [Compound 16],12,,30,10
1.5,1,2.5,CC(CC#CC1(C)CO1)C1CCC2C(=CC=C3CC(O)CC(O)C3)CCCC21C (mixture of isomers) [Compound 45],80,20,,10
50,,13,C=C1C(=CC=CCC2(C)CCC(CCCCC(C)(C)O)C2(C)C)CC(O)CC1O (stereo not drawn) [Compound 19],10,,,30
1,0.4,20,CC(CCCCC(C)(C)O)C1CCC2C(=CC=C3CC(O)CC(O)C3)CCCC21C (stereo not drawn) [Compound 54],30,,,10
0,,0,CC(CCCC(C)(C)O)C1CCC2C(=CC=C3CC(O)CC(O)C3)CCC(O)C21 (stereo not drawn) [Compound 2],75,,,4.5
